Data reported in PMC7265341, “Quantifying CDK inhibitor selectivity in live cells” (Nature Communications, 2020).
pIC50: −log10 of the molar value. Read-outs that look alike come from different tables or passages of the source.

Experiments:
CDK16/Cyclin Y = CDK16/Cyclin Y (Homo sapiens, UniProt Q00536); assay: NanoBRET live-cell target engagement, CDK16-NanoLuc/Cyclin Y in HEK-293; type: binding; conditions: CDK16/Y; for pIC50: read-out: IC50
CDK11B/Cyclin L2 = CDK11B/Cyclin L2 (Homo sapiens, UniProt P21127); assay: NanoBRET live-cell target engagement, CDK11B-NanoLuc/Cyclin L2 in HEK-293; type: binding; conditions: CDK11b/L2
CDK8/Cyclin C = CDK8/Cyclin C (Homo sapiens, UniProt P49336); assay: NanoBRET live-cell target engagement, NanoLuc-CDK8/Cyclin C in HEK-293; type: binding; conditions: CDK8/C
Chain of CDK8/Cyclin C (P49336 whole entry): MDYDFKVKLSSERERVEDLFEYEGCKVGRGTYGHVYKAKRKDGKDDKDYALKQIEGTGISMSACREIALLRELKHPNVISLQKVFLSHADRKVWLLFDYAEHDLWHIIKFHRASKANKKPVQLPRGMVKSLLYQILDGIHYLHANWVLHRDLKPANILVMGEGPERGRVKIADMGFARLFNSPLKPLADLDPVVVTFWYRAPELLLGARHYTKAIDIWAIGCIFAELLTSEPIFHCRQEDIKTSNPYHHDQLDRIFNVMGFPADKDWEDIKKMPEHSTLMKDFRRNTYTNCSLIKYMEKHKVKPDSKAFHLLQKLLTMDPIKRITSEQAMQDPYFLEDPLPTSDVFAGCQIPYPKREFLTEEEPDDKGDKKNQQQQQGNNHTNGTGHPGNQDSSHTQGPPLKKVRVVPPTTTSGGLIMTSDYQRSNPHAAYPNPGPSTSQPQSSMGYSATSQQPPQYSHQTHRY
Chain of CDK8/Cyclin C (P24863 whole entry partner): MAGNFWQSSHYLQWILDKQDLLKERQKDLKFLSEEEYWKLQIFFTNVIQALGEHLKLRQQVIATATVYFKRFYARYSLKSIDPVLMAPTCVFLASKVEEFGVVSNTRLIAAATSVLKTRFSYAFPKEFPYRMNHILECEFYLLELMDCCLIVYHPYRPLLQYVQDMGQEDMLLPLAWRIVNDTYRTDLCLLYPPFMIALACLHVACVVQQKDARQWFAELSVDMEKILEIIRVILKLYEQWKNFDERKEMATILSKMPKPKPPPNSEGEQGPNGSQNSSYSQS

CDK15/Cyclin Y = CDK15/Cyclin Y (Homo sapiens, UniProt Q96Q40); assay: NanoBRET live-cell target engagement, NanoLuc-CDK15/Cyclin Y in HEK-293; type: binding; conditions: CDK15/Y; for pIC50: read-out: IC50
CDK5/CDK5R1 = CDK5/CDK5R1 (Homo sapiens, UniProt Q00535); assay: NanoBRET live-cell target engagement, CDK5-NanoLuc/CDK5R1 in HEK-293; type: binding; conditions: CDK5/CDK5R1
Chain of CDK5/CDK5R1 (Q00535 whole entry): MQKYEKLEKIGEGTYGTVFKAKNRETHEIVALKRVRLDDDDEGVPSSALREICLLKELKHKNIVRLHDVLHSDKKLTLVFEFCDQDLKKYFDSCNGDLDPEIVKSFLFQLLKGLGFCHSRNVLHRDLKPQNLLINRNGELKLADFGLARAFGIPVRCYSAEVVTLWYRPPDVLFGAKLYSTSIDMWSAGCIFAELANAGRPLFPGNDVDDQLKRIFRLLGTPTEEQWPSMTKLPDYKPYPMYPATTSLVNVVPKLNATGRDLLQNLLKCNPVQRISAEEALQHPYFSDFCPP
Chain of CDK5/CDK5R1 (Q15078 whole entry partner): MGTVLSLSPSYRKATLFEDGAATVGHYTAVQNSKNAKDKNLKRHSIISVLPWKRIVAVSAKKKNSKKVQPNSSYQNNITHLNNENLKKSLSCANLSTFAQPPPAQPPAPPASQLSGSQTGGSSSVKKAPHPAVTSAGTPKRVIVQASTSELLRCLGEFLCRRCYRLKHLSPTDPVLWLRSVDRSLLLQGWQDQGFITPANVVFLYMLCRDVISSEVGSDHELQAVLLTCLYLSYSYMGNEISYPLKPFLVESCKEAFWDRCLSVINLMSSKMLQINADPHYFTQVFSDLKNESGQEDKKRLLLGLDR

CDK17/Cyclin Y = CDK17/Cyclin Y (Homo sapiens, UniProt Q00537); assay: NanoBRET live-cell target engagement, CDK17-NanoLuc/Cyclin Y in HEK-293; type: binding; conditions: CDK17/Y; for pIC50: read-out: IC50
CDK10/Cyclin L2 = CDK10/Cyclin L2 (Homo sapiens, UniProt Q15131); assay: NanoBRET live-cell target engagement, CDK10-NanoLuc/Cyclin L2 in HEK-293; conditions: CDK10/L2
Chain of CDK10/Cyclin L2 (Q15131 whole entry): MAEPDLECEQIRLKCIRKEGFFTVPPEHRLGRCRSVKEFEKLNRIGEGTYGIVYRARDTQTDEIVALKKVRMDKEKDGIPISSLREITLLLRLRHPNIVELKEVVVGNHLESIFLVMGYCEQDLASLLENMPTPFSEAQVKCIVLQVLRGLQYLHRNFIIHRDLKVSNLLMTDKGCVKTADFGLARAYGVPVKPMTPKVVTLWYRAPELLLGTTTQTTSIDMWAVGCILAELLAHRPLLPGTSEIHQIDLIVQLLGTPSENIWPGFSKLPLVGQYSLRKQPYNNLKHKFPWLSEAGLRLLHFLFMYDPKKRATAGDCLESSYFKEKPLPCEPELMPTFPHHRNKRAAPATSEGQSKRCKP

CDK13/Cyclin K = CDK13/Cyclin K (Homo sapiens, UniProt Q14004); assay: NanoBRET live-cell target engagement, CDK13-NanoLuc/Cyclin K in HEK-293; type: binding; conditions: CDK13/K
CDK14/Cyclin Y = CDK14/Cyclin Y (Homo sapiens, UniProt O94921); assay: NanoBRET live-cell target engagement, CDK14-NanoLuc/Cyclin Y in HEK-293; type: binding; conditions: CDK14/Y; for pIC50: read-out: IC50
Chain of CDK14/Cyclin Y (O94921 whole entry): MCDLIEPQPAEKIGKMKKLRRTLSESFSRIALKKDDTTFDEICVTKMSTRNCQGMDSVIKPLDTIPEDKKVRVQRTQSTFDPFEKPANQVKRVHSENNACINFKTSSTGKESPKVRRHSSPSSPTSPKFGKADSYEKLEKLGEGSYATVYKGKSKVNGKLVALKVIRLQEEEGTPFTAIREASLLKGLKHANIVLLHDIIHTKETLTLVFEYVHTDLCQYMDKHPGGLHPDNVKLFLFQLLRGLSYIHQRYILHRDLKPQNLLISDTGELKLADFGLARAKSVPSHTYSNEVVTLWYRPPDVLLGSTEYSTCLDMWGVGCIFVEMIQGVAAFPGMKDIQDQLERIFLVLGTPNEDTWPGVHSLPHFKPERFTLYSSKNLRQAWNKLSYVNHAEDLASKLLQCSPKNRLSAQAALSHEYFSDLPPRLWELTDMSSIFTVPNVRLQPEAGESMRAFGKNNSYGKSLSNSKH
Chain of CDK14/Cyclin Y (Q8ND76 whole entry partner): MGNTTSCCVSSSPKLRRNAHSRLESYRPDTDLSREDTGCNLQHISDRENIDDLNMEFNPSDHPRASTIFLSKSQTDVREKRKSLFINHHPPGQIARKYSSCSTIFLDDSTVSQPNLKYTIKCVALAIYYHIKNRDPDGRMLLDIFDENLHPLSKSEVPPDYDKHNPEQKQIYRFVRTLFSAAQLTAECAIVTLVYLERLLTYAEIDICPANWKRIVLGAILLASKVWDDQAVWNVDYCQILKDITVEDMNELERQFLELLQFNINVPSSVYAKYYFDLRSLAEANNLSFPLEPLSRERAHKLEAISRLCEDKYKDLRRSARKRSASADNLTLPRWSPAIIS

CDK4/Cyclin D1 = CDK4/Cyclin D1 (Homo sapiens, UniProt P11802); assay: NanoBRET live-cell target engagement, NanoLuc-CDK4/Cyclin D1 in HEK-293; type: binding; conditions: CDK4/D1; for pIC50: read-out: IC50
Chain of CDK4/Cyclin D1 (P11802 whole entry): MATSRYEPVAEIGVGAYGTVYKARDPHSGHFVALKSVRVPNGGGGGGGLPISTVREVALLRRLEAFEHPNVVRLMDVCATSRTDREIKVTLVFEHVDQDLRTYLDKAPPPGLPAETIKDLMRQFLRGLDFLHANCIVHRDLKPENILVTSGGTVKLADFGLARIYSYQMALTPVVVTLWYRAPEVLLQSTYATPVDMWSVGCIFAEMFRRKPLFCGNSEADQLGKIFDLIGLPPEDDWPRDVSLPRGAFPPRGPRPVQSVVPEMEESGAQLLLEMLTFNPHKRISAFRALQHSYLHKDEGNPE
Chain of CDK4/Cyclin D1 (P24385 whole entry partner): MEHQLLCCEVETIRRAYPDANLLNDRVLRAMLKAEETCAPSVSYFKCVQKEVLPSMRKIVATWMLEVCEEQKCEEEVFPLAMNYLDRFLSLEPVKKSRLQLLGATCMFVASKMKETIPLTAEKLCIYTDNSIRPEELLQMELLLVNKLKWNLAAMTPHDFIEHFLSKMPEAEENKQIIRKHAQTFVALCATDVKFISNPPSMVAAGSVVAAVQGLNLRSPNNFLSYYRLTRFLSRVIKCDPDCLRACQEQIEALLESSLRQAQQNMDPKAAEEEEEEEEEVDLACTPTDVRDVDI

CDK19/Cyclin C = CDK19/Cyclin C (Homo sapiens, UniProt Q9BWU1); assay: NanoBRET live-cell target engagement, NanoLuc-CDK19/Cyclin C in HEK-293
Chain of CDK19/Cyclin C (Q9BWU1 whole entry): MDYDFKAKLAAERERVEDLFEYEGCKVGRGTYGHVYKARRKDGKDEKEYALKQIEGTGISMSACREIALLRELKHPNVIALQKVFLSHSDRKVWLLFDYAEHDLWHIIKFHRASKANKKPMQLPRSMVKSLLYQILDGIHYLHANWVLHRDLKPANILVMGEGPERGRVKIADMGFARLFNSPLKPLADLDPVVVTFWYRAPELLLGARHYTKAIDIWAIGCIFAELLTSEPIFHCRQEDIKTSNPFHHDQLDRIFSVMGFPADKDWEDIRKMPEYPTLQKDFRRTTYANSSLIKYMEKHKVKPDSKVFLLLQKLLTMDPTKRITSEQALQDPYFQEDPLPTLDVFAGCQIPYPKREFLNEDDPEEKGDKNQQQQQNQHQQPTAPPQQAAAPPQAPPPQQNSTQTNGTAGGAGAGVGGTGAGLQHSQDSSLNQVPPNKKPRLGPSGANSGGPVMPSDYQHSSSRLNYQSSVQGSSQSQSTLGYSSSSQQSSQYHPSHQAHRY
Chain of CDK19/Cyclin C (P24863 whole entry partner): as the sequence (P24863 whole entry partner) above

CDK20/Cyclin H = CDK20/Cyclin H (Homo sapiens, UniProt Q8IZL9); assay: NanoBRET live-cell target engagement, NanoLuc-CDK20/Cyclin H in HEK-293; type: binding; conditions: CDK20/H
CDK12/Cyclin K = CDK12/Cyclin K (Homo sapiens, UniProt Q9NYV4); assay: NanoBRET live-cell target engagement, CDK12-NanoLuc/Cyclin K in HEK-293; type: binding; conditions: CDK12/K
CDK3/Cyclin E1 = CDK3/Cyclin E1 (Homo sapiens, UniProt Q00526); assay: NanoBRET live-cell target engagement, CDK3-NanoLuc/Cyclin E1 in HEK-293; type: binding; conditions: CDK3/E1
CDK11A/Cyclin L2 = molecular target: T1, CDK11A/Cyclin L2 (Homo sapiens, UniProt Q9UQ88); assay: NanoBRET live-cell target engagement, CDK11A-NanoLuc/Cyclin L2 in HEK-293; type: binding; conditions: CDK11a/L2
T1 sequence (Q9UQ88 1-783): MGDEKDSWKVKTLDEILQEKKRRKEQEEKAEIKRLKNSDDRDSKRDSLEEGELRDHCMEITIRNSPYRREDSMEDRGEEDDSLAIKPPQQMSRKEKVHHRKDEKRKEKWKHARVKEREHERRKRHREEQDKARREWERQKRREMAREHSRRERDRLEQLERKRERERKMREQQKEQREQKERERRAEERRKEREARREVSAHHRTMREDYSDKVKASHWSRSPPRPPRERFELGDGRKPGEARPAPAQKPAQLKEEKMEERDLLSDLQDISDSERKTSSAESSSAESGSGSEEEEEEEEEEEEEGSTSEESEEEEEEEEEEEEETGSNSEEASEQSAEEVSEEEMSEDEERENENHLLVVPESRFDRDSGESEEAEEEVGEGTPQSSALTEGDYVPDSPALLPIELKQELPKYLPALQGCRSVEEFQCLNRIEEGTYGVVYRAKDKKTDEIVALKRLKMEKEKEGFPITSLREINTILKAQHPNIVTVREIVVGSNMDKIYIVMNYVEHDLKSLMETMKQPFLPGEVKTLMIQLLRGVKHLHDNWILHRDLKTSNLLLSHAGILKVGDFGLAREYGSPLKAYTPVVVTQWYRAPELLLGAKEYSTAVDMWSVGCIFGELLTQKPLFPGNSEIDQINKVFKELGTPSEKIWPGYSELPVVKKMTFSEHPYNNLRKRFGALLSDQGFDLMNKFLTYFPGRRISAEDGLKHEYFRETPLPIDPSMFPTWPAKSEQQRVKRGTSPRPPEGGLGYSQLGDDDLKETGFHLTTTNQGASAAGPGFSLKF

CDK18/Cyclin Y = CDK18/Cyclin Y (Homo sapiens, UniProt Q07002); assay: NanoBRET live-cell target engagement, CDK18-NanoLuc/Cyclin Y in HEK-293; type: binding; conditions: CDK18/Y
CDK6/Cyclin D1 = CDK6/Cyclin D1 (Homo sapiens, UniProt Q00534); assay: NanoBRET live-cell target engagement, NanoLuc-CDK6/Cyclin D1 in HEK-293; type: binding; conditions: CDK6/D1; for pIC50: read-out: IC50
Chain of CDK6/Cyclin D1 (Q00534 whole entry): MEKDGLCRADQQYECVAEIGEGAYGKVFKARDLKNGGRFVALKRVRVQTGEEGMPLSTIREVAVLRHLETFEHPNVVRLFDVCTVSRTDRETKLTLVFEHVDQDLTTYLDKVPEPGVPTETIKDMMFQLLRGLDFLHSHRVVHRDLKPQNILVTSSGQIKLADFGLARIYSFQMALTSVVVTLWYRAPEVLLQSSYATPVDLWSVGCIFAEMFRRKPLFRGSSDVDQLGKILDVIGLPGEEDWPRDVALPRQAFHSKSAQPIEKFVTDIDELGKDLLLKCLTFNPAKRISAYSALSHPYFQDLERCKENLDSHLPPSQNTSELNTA
Chain of CDK6/Cyclin D1 (P24385 whole entry partner): as the sequence (P24385 whole entry partner) above

Chain of CDK16/Cyclin Y (Q00536 whole entry): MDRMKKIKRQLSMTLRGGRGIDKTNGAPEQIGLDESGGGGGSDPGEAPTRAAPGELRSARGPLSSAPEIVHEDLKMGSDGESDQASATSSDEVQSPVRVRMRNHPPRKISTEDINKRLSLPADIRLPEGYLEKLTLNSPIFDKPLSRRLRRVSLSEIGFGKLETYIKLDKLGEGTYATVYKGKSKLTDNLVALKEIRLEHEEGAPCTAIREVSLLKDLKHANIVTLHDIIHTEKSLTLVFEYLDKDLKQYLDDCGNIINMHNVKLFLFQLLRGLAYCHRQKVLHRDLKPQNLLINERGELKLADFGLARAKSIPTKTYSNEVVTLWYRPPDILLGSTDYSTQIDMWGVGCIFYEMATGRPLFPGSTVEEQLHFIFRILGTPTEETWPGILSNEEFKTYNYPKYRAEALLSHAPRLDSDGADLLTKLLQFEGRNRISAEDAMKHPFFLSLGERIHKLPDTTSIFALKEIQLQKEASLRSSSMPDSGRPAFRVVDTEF
Chain of CDK16/Cyclin Y (Q8ND76 whole entry partner): as the sequence (Q8ND76 whole entry partner) above

CNc1nc(C)c(-c2nc(Nc3cccc(S(N)(=O)=O)c3)ncc2F)s1 [CDKI-73]
pIC50 (CDK16/Cyclin Y; average (± SEM where n=3)): 8.39
Inhibition at 10µM (%) (CDK16/Cyclin Y; experiment 1): 92.7%
pIC50 (CDK16/Cyclin Y; experiment 1): 8.49
Inhibition at 10µM (%) (CDK16/Cyclin Y; experiment 2): 92.0%
pIC50 (CDK16/Cyclin Y; experiment 2): 8.31
Inhibition at 10µM (%) (CDK11B/Cyclin L2; average): 50.2%
Inhibition at 10µM (%) (CDK11B/Cyclin L2; experiment 1): 41.6%
Inhibition at 10µM (%) (CDK11B/Cyclin L2; experiment 2): 58.7%
Inhibition at 10µM (%) (CDK8/Cyclin C; average): 89.5%
Inhibition at 10µM (%) (CDK8/Cyclin C; experiment 1): 81.5%
Inhibition at 10µM (%) (CDK8/Cyclin C; experiment 2): 97.4%
Inhibition at 10µM (%) (CDK15/Cyclin Y; average): 92.4%
pIC50 (CDK15/Cyclin Y; average (± SEM where n=3)): 7.10
Inhibition at 10µM (%) (CDK15/Cyclin Y; experiment 1): 92.6%
pIC50 (CDK15/Cyclin Y; experiment 1): 6.97
Inhibition at 10µM (%) (CDK15/Cyclin Y; experiment 2): 92.2%
pIC50 (CDK15/Cyclin Y; experiment 2): 7.27
Inhibition at 10µM (%) (CDK5/CDK5R1; average): 90.6%
Inhibition at 10µM (%) (CDK5/CDK5R1; experiment 1): 88.4%
Inhibition at 10µM (%) (CDK5/CDK5R1; experiment 2): 92.7%
Inhibition at 10µM (%) (CDK17/Cyclin Y; average): 92.2%
pIC50 (CDK17/Cyclin Y; average (± SEM where n=3)): 8.08
Inhibition at 10µM (%) (CDK17/Cyclin Y; experiment 1): 92.4%
pIC50 (CDK17/Cyclin Y; experiment 1): 8.11
Inhibition at 10µM (%) (CDK17/Cyclin Y; experiment 2): 92.0%
pIC50 (CDK17/Cyclin Y; experiment 2): 8.06
Inhibition at 10µM (%) (CDK10/Cyclin L2; average): 40.1%
Inhibition at 10µM (%) (CDK10/Cyclin L2; experiment 1): 36.9%
Inhibition at 10µM (%) (CDK10/Cyclin L2; experiment 2): 43.3%
Inhibition at 10µM (%) (CDK13/Cyclin K; average): 37.1%
Inhibition at 10µM (%) (CDK13/Cyclin K; experiment 1): 35.9%
Inhibition at 10µM (%) (CDK13/Cyclin K; experiment 2): 38.4%
Inhibition at 10µM (%) (CDK14/Cyclin Y; average): 92.7%
pIC50 (CDK14/Cyclin Y; average (± SEM where n=3)): 7.32
Inhibition at 10µM (%) (CDK14/Cyclin Y; experiment 1): 93.7%
pIC50 (CDK14/Cyclin Y; experiment 1): 7.23
Inhibition at 10µM (%) (CDK14/Cyclin Y; experiment 2): 91.8%
pIC50 (CDK14/Cyclin Y; experiment 2): 7.43
Inhibition at 10µM (%) (CDK4/Cyclin D1; average): 93.8%
pIC50 (CDK4/Cyclin D1; average (± SEM where n=3)): 7.92
Inhibition at 10µM (%) (CDK4/Cyclin D1; experiment 1): 99.0%
pIC50 (CDK4/Cyclin D1; experiment 1): 7.89
Inhibition at 10µM (%) (CDK4/Cyclin D1; experiment 2): 88.5%
pIC50 (CDK4/Cyclin D1; experiment 2): 7.96
Inhibition at 10µM (%) (CDK19/Cyclin C; CDK19/C, average): 79.0%
pIC50 (CDK19/Cyclin C; CDK19/C, experiment 1): 6.29
Inhibition at 10µM (%) (CDK19/Cyclin C; CDK19/C, experiment 1): 76.8%
pIC50 (CDK19/Cyclin C; CDK19/C, experiment 2): 6.92
Inhibition at 10µM (%) (CDK19/Cyclin C; CDK19/C, experiment 2): 81.3%
pIC50 (CDK19/Cyclin C; CDK19/Y (so in the source), average (± SEM where n=3)): 6.51
Inhibition at 10µM (%) (CDK20/Cyclin H; experiment 1): 73.0%
Inhibition at 10µM (%) (CDK20/Cyclin H; experiment 2): 44.8%
Inhibition at 10µM (%) (CDK12/Cyclin K; average): 42.5%
Inhibition at 10µM (%) (CDK12/Cyclin K; experiment 1): 31.7%
Inhibition at 10µM (%) (CDK12/Cyclin K; experiment 2): 53.2%
Inhibition at 10µM (%) (CDK3/Cyclin E1; average): 97.0%
Inhibition at 10µM (%) (CDK3/Cyclin E1; experiment 1): 94.8%
Inhibition at 10µM (%) (CDK3/Cyclin E1; experiment 2): 99.2%
Inhibition at 10µM (%) (CDK11A/Cyclin L2; average): 42.8%
Inhibition at 10µM (%) (CDK11A/Cyclin L2; experiment 1): 32.6%
Inhibition at 10µM (%) (CDK11A/Cyclin L2; experiment 2): 53.0%
Inhibition at 10µM (%) (CDK18/Cyclin Y; experiment 1): 95.5%
Inhibition at 10µM (%) (CDK18/Cyclin Y; experiment 2): 102.2%
Inhibition at 10µM (%) (CDK6/Cyclin D1; average): 99.1%
pIC50 (CDK6/Cyclin D1; average (± SEM where n=3)): 7.85
Inhibition at 10µM (%) (CDK6/Cyclin D1; experiment 1): 98.8%
pIC50 (CDK6/Cyclin D1; experiment 1): 7.66
Inhibition at 10µM (%) (CDK6/Cyclin D1; experiment 2): 99.3%
pIC50 (CDK6/Cyclin D1; experiment 2): 8.18
